These results are taken from US20060287257A1, “Pharmaceutical compositions to treat diseases caused by mycobacterium” (priority 2005, published 2006).

The test has as its system Mycobacterium tuberculosis strain H37Rv. The test can be described thus: Screen against Mycobacterium tuberculosis strain H37Rv by serial dilution. The test is classed as cell-based. As to conditions: M. tuberculosis H37Rv. The text has this: All of the compounds were screened against Mycobacterium tuberculosis strain H37Rv by serial dilution. The minimum inhibitory concentration and degree of inhibition is presented.
`CCCCCCCCCCCC(=O)O.NC(=NCCCCCCN=C(N)N=C(N)Nc1ccc(Cl)cc1)N=C(N)Nc1ccc(Cl)cc1` [Compound 6, chlorhexidine dilaurate]: the “% Inhibition (degree of inhibition)” value came out at 99% and the “MIC (minimum inhibitory concentration)” value came to 3.13 mg/L.
As to “N-cocoylamide-L-argimine ethyl ester triclosanate [Compound 3]”, the “% Inhibition (degree of inhibition)” value came to 94% and the “MIC (minimum inhibitory concentration)” value turned out to be 1.56 mg/L.
The like results for “Isoniazide dodecyl benzene sulfonate [Compound 2]” were, in that order, 99% and 0.78 mg/L.
Consider “chlorhexidine beta cyclodextrin sulfobutyl ether [Compound 8]”, for which the “% Inhibition (degree of inhibition)” value worked out at 94% and the “MIC (minimum inhibitory concentration)” value was determined as 3.13 mg/L.
The like results for `CCCCCCCCCCCCCCCCCC(=O)O.CCCCCCCCCCCCCCCCCC(=O)O.N=C(NCCCCCCNC(=N)NC(=N)Nc1ccc(Cl)cc1)NC(=N)Nc1ccc(Cl)cc1` [Compound 11, chlorhexidine distearate] were, in that order, 99% and 3.13 mg/L.
The corresponding values for `N=C(NCCCCCCNC(=N)NC(=N)Nc1ccc(Cl)cc1)NC(=N)Nc1ccc(Cl)cc1.Oc1ccccc1-c1ccccc1.Oc1ccccc1-c1ccccc1` [Compound 9, chlorhexidine di-ortho phenyl phenol] are 99% and 3.13 mg/L.
On to `N=C(NCCCCCCNC(=N)NC(=N)Nc1ccc(Cl)cc1)NC(=N)Nc1ccc(Cl)cc1.Sc1nc2ccccc2s1.Sc1nc2ccccc2s1` [Compound 5, chlorhexidine di-2-mercaptobenzthiazole], for which the “% Inhibition (degree of inhibition)” value was determined as 90% and the “MIC (minimum inhibitory concentration)” value was 1.56 mg/L.
The corresponding values for `N=C(NCCCCCCNC(=N)NC(N)=Nc1ccc(Cl)cc1)NC(N)=Nc1ccc(Cl)cc1.NCCCC(O)(P(=O)(O)O)P(=O)(O)O.NCCCC(O)(P(=O)(O)O)P(=O)(O)O` [Compound 7, chlorhexidine di [4-amino-1-hydroxybutylidene] bis-phosphonate] are 94% and 3.13 mg/L.
Turning to chlorhexidine dithymol [Compound 4], the “% Inhibition (degree of inhibition)” value is listed as 98% and the “MIC (minimum inhibitory concentration)” value was 1.56 mg/L.
